Assay results published in article PMC11840788, “3,3′-Diindolylmethane (DIM): A Molecular Scaffold for Inhibition of WWP1 and WWP2, Members of the NEDD4 Family HECT E3 Ligases” (ACS Omega, 2025).
Several values for one entry are separate records, joined by “and”; a condition that tells them apart may be missing. Equal values may be shown once.

What was measured:
[1] = parameters: method as in PMID 17699787; details: cited from earlier work
WWP1 = WWP1 (Homo sapiens, UniProt Q9H0M0); parameters: method as in PMID 31097636, doi:10.1016/j.phytol.2023.01.002; details: cited from earlier work
Sequence of WWP1 (Q9H0M0 546-922 limits assumed): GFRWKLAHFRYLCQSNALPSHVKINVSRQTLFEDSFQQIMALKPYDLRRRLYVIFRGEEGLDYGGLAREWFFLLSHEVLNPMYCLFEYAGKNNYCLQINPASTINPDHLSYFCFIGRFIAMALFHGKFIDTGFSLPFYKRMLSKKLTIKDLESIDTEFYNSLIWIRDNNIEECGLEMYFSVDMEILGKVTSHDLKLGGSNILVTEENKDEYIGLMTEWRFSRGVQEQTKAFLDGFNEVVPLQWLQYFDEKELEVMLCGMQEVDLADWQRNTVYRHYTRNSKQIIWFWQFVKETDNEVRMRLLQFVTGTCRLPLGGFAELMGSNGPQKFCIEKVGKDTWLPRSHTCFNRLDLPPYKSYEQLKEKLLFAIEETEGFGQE

[2] = biological target: T1, WWP1 (His-tagged WWP1-L34H) (Homo sapiens, UniProt Q9H0M0); assay: in vitro autoubiquitination assay (single shot and dose dependency), WWP1; type: biochemical; details: for inhibition of WWP1 (in words): autoubiquitination assay; for IC50: nonlinear regression of RA against log concentration, 1 mM to 10 nM, 1% DMSO; for WWP1 RA (%) relative activity: single shot, compound at 1 mM (1% DMSO), standardized to 0 and 100% controls
T1 construct: WWP1- 2,3-linker-WW3-WW4-HECT (WWP1-L34H); made in house; host or cells: E. coli BL21-CodonPlus RP (plasmid pET32a-WWP1-L34H, gift of Dr Wenyu Wen)
T1 sequence (Q9H0M0 415-922, stated change not applied): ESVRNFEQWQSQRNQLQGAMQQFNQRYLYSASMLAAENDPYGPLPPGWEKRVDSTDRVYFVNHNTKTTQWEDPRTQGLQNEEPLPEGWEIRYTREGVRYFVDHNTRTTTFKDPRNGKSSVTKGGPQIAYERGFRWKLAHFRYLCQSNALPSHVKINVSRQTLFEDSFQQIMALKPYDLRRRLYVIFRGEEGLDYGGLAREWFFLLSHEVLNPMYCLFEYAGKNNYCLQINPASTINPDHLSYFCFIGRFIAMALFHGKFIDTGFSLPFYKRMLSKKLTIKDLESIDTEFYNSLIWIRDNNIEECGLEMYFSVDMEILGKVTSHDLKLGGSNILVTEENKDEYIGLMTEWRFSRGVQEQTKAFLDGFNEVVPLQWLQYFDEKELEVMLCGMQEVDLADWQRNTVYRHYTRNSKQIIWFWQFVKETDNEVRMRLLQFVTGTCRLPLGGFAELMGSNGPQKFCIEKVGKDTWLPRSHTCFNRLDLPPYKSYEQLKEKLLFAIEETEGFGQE
Protocol: (§1) A single shot in vitro autoubiquitination assay was performed for I3C, DIM and each of the derivatives against WWP1 and WWP2 using a compound concentration of 1 mM (1% DMSO) (SI Figure S3). […] These active compounds were then subjected to a detailed dose dependency analysis leading to IC50 values. This strategy has previously been employed to screen other WWP1/WWP2 small molecule inhibitors as well as used to assess I3C inhibition toward NEDD4-1.[29],[32] In this way, compounds displaying a relative activity (RA) of less than 50% in the single shot assay were further screened for dose-dependency using a logarithmic concentration range from 10 nM to 1 mM (1% DMSO) (SI Figure S4). […] These were confirmed by counter assays to remove compounds possibly interacting with other enzymes in the assay or interfering with the assay directly (SI Table S1).
(§2) Cell lysate containing His-tagged WWP1-L34H or GST-tagged WWP2-FL proteins were incubated on either 96-well Clear Pierce glutathione or nickel-coated plates for 1 h. Reaction mixtures of either 3 ng/well GST-Uba1 and 15 ng/well UbcH7 or 10 ng/well His-Uba1 and 150 ng/well His-UbcH7 were incubated together in 25 mM Tris pH 8.0, 100 mM NaCl, 4 mM MgCl2 containing 60 ng/well FLAG-ubiquitin and 1.25 mM ATP for 40 min. A prior 1% BSA plate blocking step is required for nickel-coated plates. After plate washing, 2 μL of the compound was added at the desired concentration (1% DMSO) followed by 18 μL of the reaction mixture. This was then incubated for 2 h with 0 and 100% controls before 100 μL of anti-FLAG M2-Peroxidase HRP (1:10,000 PBST) was added to each well and incubated for 1 h. Finally, 100 μL of 1 × TMB substrate solution (Invitrogen) was added to each well and incubated for up to 10 min until sufficient blue color change was observed. To stop the reaction, 100 μL of 1 M HCl was added. For the counter assay, 3 ng/well GST-Uba1 and 200 ng/well UbcH7 were incubated with the other reaction mixture components for 1 h before incubating onto plates for a further 1 h. All other steps were followed. The plates were washed three times with PBST (and 15 mM Imidazole) between each step. Quantification was measured by absorbance read at 450 nm. All assay optimizations were as previously reported.[32] IC50 nonlinear regression curves were calculated in GraphPad v10.2 (Prism). […]
(§3) Auto-ubiquitination Assay
(§4) Cell lysate containing His-tagged WWP1-L34H or GST-tagged WWP2-FL proteins were incubated on either 96-well Clear Pierce glutathione 2 or nickel-coated plates for 1 hour. Reaction mixtures of either 3 ng/well GST-Uba1 and 15 ng/well UbcH7 or 10 ng/well His-Uba1 and 150 ng/well His-UbcH7 were incubated together in 25 mM Tris pH 8.0, 100 mM NaCl, 4 mM MgCl2 containing 60 ng/well FLAG-ubiquitin and 1.25 mM ATP for 40 minutes. A prior 1 % BSA plate blocking step is required for nickel-coated plates. After plate washing, 2 μL of the compound was added at the desired concentration (1 % DMSO) followed by 18 μL of the reaction mixture. This was then incubated for 2 hours with 0% and 100% controls before 100 μL of anti-FLAG M2-Peroxidase HRP (1: 10,000 PBST) was added to each well and incubated for 1 hour.
(§5) Finally, 100 μL of 1 × TMB substrate solution (Invitrogen) was added to each well and […]
(§6) incubated for up to 10 minutes until sufficient blue colour change was observed. To stop the reaction, 100 μL of 1 M HCl was added. For the counter assay, 3 ng/well GST-Uba1 and 200 ng/well UbcH7 were incubated with the other reaction mixture components for 1 hour before incubating onto plates for a further 1 hour. All other steps were followed.
(§7) The plates were washed three times with PBST (and 15 mM Imidazole) between each step. Quantification was measured by absorbance read at 450 nm. All assay optimisations have been previously reported by Watt and colleagues3.
(§8) Relative activity (RA) was determined by comparing the autoubiquitination of the WWP ligases in the presence of each compound, i.e TMB absorbance (450 nm), to the […]

[3] = biological target: T2, WWP2 (GST-tagged WWP2-FL) (Homo sapiens, UniProt O00308); assay: in vitro autoubiquitination assay (single shot and dose dependency), WWP2; type: biochemical; details: for WWP2 RA (%) relative activity: single shot, compound at 1 mM (1% DMSO), standardized to 0 and 100% controls; for inhibition of WWP2 (in words): autoubiquitination assay; for IC50: nonlinear regression of RA against log concentration, 1 mM to 10 nM, 1% DMSO
T2 construct: Full- length WWP2 (WWP2-FL); made in house; host or cells: E. coli BL21-CodonPlus RP (plasmid pGEX2T-WWP2-FL, Dr Andrew Chantry's Lab)
T2 sequence (O00308 whole entry): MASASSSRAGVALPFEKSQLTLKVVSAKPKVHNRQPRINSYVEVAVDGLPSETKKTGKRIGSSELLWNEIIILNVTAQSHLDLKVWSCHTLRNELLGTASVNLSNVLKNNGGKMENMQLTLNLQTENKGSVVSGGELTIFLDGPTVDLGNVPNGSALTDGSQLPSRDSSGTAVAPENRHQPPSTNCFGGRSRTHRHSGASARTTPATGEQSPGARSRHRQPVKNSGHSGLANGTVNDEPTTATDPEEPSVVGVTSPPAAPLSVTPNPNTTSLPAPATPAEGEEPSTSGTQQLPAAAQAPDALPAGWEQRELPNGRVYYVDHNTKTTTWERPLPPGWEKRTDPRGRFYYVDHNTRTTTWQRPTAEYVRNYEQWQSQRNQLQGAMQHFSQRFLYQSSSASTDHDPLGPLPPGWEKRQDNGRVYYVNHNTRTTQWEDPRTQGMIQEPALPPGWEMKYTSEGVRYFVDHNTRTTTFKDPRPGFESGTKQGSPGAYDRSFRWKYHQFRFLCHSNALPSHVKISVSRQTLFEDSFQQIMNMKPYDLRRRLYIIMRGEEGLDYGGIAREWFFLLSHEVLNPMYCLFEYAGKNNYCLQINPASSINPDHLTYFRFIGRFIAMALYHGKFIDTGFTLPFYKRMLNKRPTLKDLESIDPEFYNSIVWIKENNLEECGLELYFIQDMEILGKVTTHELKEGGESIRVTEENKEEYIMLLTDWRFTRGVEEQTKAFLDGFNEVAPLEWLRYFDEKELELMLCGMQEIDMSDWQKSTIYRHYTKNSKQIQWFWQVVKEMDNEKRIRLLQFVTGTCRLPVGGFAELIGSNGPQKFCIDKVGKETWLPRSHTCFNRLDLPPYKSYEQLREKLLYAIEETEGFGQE
Protocol: as §1, §2, §3, §4, §5, §6, §7, §8

UbcH7 = biological target: T3, UbcH7 (Homo sapiens, UniProt P68036); assay: counter auto-ubiquitination screen; type: biochemical; details: counter assay, GST-Uba1 and UbcH7 without E3
T3 construct: GST (N, cleaved yes); made in house; host or cells: E. coli BL21 (DE3) (pGEX4T-1-UbcH7a and pGEX4T-1-hUba1, gifts of Dr Arthur L Haas's Lab)
T3 sequence (P68036 whole entry): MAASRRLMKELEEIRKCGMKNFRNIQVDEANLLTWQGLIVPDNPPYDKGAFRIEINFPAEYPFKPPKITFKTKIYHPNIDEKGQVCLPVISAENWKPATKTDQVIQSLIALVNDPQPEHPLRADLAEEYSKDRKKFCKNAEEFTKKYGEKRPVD
Protocol: as §1
Cell lysate containing His-tagged WWP1-L34H or GST-tagged WWP2-FL proteins were incubated on either 96-well Clear Pierce glutathione or nickel-coated plates for 1 h. Reaction mixtures of either 3 ng/well GST-Uba1 and 15 ng/well UbcH7 or 10 ng/well His-Uba1 and 150 ng/well His-UbcH7 were incubated together in 25 mM Tris pH 8.0, 100 mM NaCl, 4 mM MgCl2 containing 60 ng/well FLAG-ubiquitin and 1.25 mM ATP for 40 min. A prior 1% BSA plate blocking step is required for nickel-coated plates. […] Quantification was measured by absorbance read at 450 nm. […] IC50 nonlinear regression curves were calculated in GraphPad v10.2 (Prism). […]
The plates were washed three times with PBST (and 15 mM Imidazole) between each step. Quantification was measured by absorbance read at 450 nm. […]
Relative activity (RA) was determined by comparing the autoubiquitination of the WWP ligases in the presence of each compound, i.e TMB absorbance (450 nm), to the 100 % controls (1 % DMSO only), further normalising against background absorbance using 0 % controls (no E3 loaded). […]
IC50 non-linear regression curves were calculated in GraphPad v10.2 (Prism). […]

NEDD4-1 = system: NEDD4-1; parameters: method as in PMID 27979631; details: cited from earlier work

| inhibition of WWP1 (in words) [2] | IC50 [2] | WWP1 RA (%) relative activity [2] | WWP2 RA (%) relative activity [3] | UbcH7 Activity (%) (UbcH7) | inhibition of WWP2 (in words) [3] | IC50 [3] | Compound | increase in antiproliferative properties relative to I3C [1] | IC50 (WWP1) | IC50 (NEDD4-1) |
| --- | --- | --- | --- | --- | --- | --- | --- | --- | --- | --- |
| – | – | – | – | – | – | – | O=[N+]([O-])c1cc(S(=O)(=O)n2cc(CO)c3ccccc32)ccc1Cl [OSU-A9] | 100 fold | – | – |
| – | – | – | – | – | – | – | CCc1ccc(C=CC(=O)Nc2ccc(C(C)=O)cc2)o1 [Heclin] | – | 6.9 µM | – |
| displayed inhibition | 111 µM | 17.2% | 62.2 ± 6.1% and 62.2% | 83.3 ± 2.0% | – | – | c1ccc2c(Cc3c[nH]c4ccccc34)c[nH]c2c1 [DIM, 3,3′-diindolylmethane] | – | – | – |
| displayed inhibition | 218 µM | 11.4% | 39.2% | 86.3 ± 1.8% | displayed inhibition | 224 µM | Cc1ccc(S(=O)(=O)n2cc(CO)c3ccccc32)cc1 [Compound 15, N-(4-methylbenzenesulfonyl)indole-3-carbinol] | – | – | – |
| displayed inhibition | 799 µM | 22.5% | 30.0% | 79.7 ± 1.5% | displayed inhibition | 642 µM | O=S(=O)(c1ccc(C(F)(F)F)cc1)n1cc(CO)c2ccccc21 [Compound 16, N-(4-trifluoromethylbenzenesulfonyl)indole-3-carbinol] | – | – | – |
| no evidence of inhibition | – | 105.9% | 97.6% | – | no evidence of inhibition | – | OCc1cn(Cc2ccccc2)c2ccccc12 [Compound 13, N-benzylindole-3-carbinol] | – | – | 12.3 µM |
